In patent US6479651B1, “Modified oligonucleotides, their preparation and their use” (Aventis Pharma Deutschland GmbH, priority 1994, dated 2002):

Row | Compound | melting point [°C]
1 | Nc1nc2c(c(I)cn2[C@H]2C[C@H](O)[C@@H](CO)O2)c(=O)[nH]1 [Compound 58, 2-Amino-7-(2-deoxy-β-D-erythropentofuranosyl)-5-iodo-3,7-dihydro-4H-pyrrolo[2,3-d]pyrimidin-4-one] | 218 to 220
2 | Cc1cn([C@H]2C[C@H](O)[C@@H](CO)O2)c2ncnc(NC(=O)c3ccccc3)c12 [Compound 6, 4-Benzoylamino-7-(2-deoxy-β-D-erythropentofuranosyl)-5-methyl-7H-pyrrolo[2,3-d]pyrimidine] | 196
3 | Nc1ncnc2c1c(I)cn2[C@H]1C[C@H](O)[C@@H](CO)O1 [Compound 14, 4-Amino-7-(2-deoxy-β-D-erythropentofuranosyl)-5-iodo-7H-pyrrolo [2,3-d]pyrimidine] | 194
4 | O=C(Nc1ncnc2c1c(Br)cn2[C@H]1C[C@H](O)[C@@H](CO)O1)c1ccccc1 [Compound 5, 4-Benzoylamino-5-bromo-7-(2-deoxy-β-D-erythropentofuranosyl)-7H-pyrrolo[2,3-d]pyrimidine] | 198
5 | O=C(Nc1ncnc2c1c(Cl)cn2[C@H]1C[C@H](O)[C@@H](CO)O1)c1ccccc1 [Compound 4, 4-Benzoylamino-5-chloro-7-(2-deoxy-β-D-erythropentofuranosyl)-7H-pyrrolo[2,3-d]pyrimidine] | 190
6 | COc1nc(NC=O)nc2c1c(Cl)c(Cl)n2[C@H]1C[C@H](OC(=O)C(C)C)[C@@H](COC(=O)C(C)C)O1 [Compound 49, 7-[2-Deoxy-3,5-di-O-(2-methylpropionyl)-β-D-erythropentofuranosyl]-5,6-dichloro-2-[(formyl)amino]-4-methoxy-7H-pyrrolo[2,3-d]pyrimidine] | 127 to 128
